The record followed here is US11903944B1, “Experimental model using pazopanib-induced cardiotoxicity” (KING FAISAL UNIVERSITY, priority 2023, dated 2024).

Structures are written as SMILES.

Holding throughout (format): in vivo, Male Sprague Dawley rats
Data set [1] in a line: Blood pressure recording, noninvasive tail-cuff system, experimental animal model for hypertension. The settings on record: 30 mg/kg twice daily orally for 14 days; compared to normal animals. How it is done:
(§1) This experimental protocol was permitted by the Institutional Animal Care and Use Committee of King Faisal University. All the experiments were executed in harmony with the relevant procedures and regulations of the Ethical Conduct for the Use of Animals in Research at King Faisal University. Male Sprague Dawley rats weighing 150-200 g were purchased and accommodated in polypropylene cages and upheld at 27±2° C. under a 12 h light/dark sequence. Rats were kept and observed for 1 week in the animal house. The animals were fed with standard rat feed and allowed water ad libitum.
(§2) Animals were distributed into 5 groups, each group containing 6 rats (n=6). Group 1 is the control group in which animals were injected with normal saline intraperitoneally (IP). Group 2: The animals were treated with Pazopanib 30 mg/kg twice daily orally for 14 days to induce hypertension. This group represents the “Experimental animal model for hypertension.” Group 3: The animals were treated with Pazopanib 100 mg/kg orally as a single dose. This group represents the “Experimental animal model for arrhythmia.” Group 4: The animals were treated with Pazopanib 300 mg/kg/day orally for 21 days. This group represents the “Experimental animal model for Cardiac toxicity (oral)” Group 5: The animals were treated with Pazopanib 21 mg/kg/day intraperitoneally (IP) for 30 days. This group represents the “Experimental animal model for Cardiac toxicity (IP)”
Blood pressure measurements were performed using a noninvasive computerized tail-cuff system from Emka Technologies' Systems (Paris, France), which involved placing a cuff on the animal's tail to occlude the blood flow. The pressure was raised and then slowly released. The cuff pressure when the pulse signal reappears is intended as the systolic pressure. […]
(§3) Data were expressed as mean±standard error of the mean (SEM) for six animals (n=6) in each group. Statistically significant differences between the groups were determined using one-way ANOVA followed by Tukey's test as a post-hoc analysis. […]

Data set [2] has as its system Toll-Like Receptors 4 (TLR4) gene expressions. Nature of the data set: TLR4 gene expression in cardiac tissue by real-time quantitative PCR. As for the experimental part: as §1
Animals were distributed into 5 groups, each group containing 6 rats (n=6). Group 1 is the control group in which animals were injected with normal saline intraperitoneally (IP). Group 2: The animals were treated with Pazopanib 30 mg/kg twice daily orally for 14 days to induce hypertension. This group represents the “Experimental animal model for hypertension.” Group 3: The animals were treated with Pazopanib 100 mg/kg orally as a single dose. […] This group represents the “Experimental animal model for Cardiac toxicity (IP)”
Blood samples were collected, and centrifuged (10 min/4000 rpm) to separate serum which was then stored in a −80° C. for biochemical analysis. […]
Total RNA was extracted from the cardiac tissue samples according to the Trizol kit instructions. […] The TLR4 primer (5′-[…]-3′ (SEQ ID NO: 1), 3′-[…]-5′ (SEQ ID NO: 2)), TLR2 (5′-[…]-3′ (SEQ ID NO: 3), 3′-[…]-5′ (SEQ ID NO: 4)), MYD88 (5′-[…]-3′ (SEQ ID NO: 5), 3′-[…]-5′ (SEQ ID NO: 6)) were used to detect and quantify related genes in the cDNA using Real-time quantitative PCR. In a 25 μL reaction volume, PCR was performed as follows: initial denaturation for 4 min at 94° C., followed by denaturation for 30 s at 94° C., annealing for 30 s at 62° C., and extension for 2 min at 72° C. for 35 cycles, and final extension for 10 min at 72° C. qPCR was applied using SYBR ExScript RT-PCR kit, and quantification examinations were accomplished via an Opticon-2 Real-time PCR reactor (MJ Research, Capital Court, Reno, NV, USA). qPCR results were obtained using Step PE Applied Biosystems (Waltham, MA, USA) software. Relative gene expression data were calculated using the (2-ΔΔCq2) method and presented as a fold change. Target gene expressions were assessed and related to the internal reference β-actin gene using the primer (5′-ATCCTGCGTCTGGACCTGG-3′ (SEQ ID NO: 7), 5′-[…]-3′ (SEQ ID NO: 8)), and the results were presented in the figures as relative expressions.
as §3

Data set [3] can be described thus: Electrocardiogram (ECG) recording for arrhythmia identification, experimental animal model for arrhythmia. The note with it: 100 mg/kg orally single dose, after 3 hours. How it is done: as §1, §2
At the end of the experiments, urethane-anaesthetized rats (1.5 g/kg) were placed in a prone position on a board, and an ECG was continuously recorded using noninvasive computerized ECG apparatus from Kent Scientific (Torrington, CT, USA). Heart rate, ST segment, P wave, QT, P-R and R-R intervals, and QRS complex were calculated from ECG recordings electronically.
(§4) Data were expressed as mean±standard error of the mean (SEM) for six animals (n=6) in each group. Statistically significant differences between the groups were determined using one-way ANOVA followed by Tukey's test as a post-hoc analysis. In all cases, probability values of p<0.05 were taken as statistically significant.

Data set [4] in a line: Cardiac toxicity identification: serum cardiac marker levels by ELISA. The note with it: compared with normal rats, p<0.05. How it is done:
as §1
Animals were distributed into 5 groups, each group containing 6 rats (n=6). Group 1 is the control group in which animals were injected with normal saline intraperitoneally (IP). Group 2: The animals were treated with Pazopanib 30 mg/kg twice daily orally for 14 days to induce hypertension. This group represents the “Experimental animal model for hypertension.” Group 3: The animals were treated with Pazopanib 100 mg/kg orally as a single dose. This group represents the “Experimental animal model for arrhythmia.” Group 4: The animals were treated with Pazopanib 300 mg/kg/day orally for 21 days. […] This group represents the “Experimental animal model for Cardiac toxicity (IP)”
Blood samples were collected, and centrifuged (10 min/4000 rpm) to separate serum which was then stored in a −80° C. for biochemical analysis. Thereafter, the anaesthetized animals were sacrificed, and the hearts of different investigational groups were separated, and stored in a −80° C. for subsequent biochemical parameters determination.
ELISA kits, following the manufacturer's instructions, were used to measure serum cardiac marker levels of CPK, CK-MB, cTnT, cTnI and LDH.
as §4
For orientation: In an ELISA, binding on a coated surface is turned into a signal by an enzyme label.

Where [5] appears, read: 30 mg/kg/day intraperitoneally (IP) for 21 days.
[6] abbreviates: 300 mg/kg/day orally for 21 days.

In the case of `Cc1ccc(Nc2nccc(N(C)c3ccc4c(C)n(C)nc4c3)n2)cc1S(N)(=O)=O` [Pazopanib], in data set [1], the diastolic blood pressure result is recorded as “elevated”, the mean blood pressure entry was “elevated” and the systolic blood pressure entry is “elevated”. Further, the TLR4 gene expression entry in data set [2] (arrhythmia model: 100 mg/kg orally as a single dose) is “significantly increased”. Moreover, the TLR4 gene expression entry in data set [2] (cardiotoxicity model: 30 mg/kg/day intraperitoneally (IP) for 30 days) is “significantly increased”. In addition, the TLR4 gene expression entry in data set [2] (cardiotoxicity model: 300 mg/kg/day orally for 30 days) is reported as “significantly increased”. Moreover, the TLR4 gene expression entry in data set [2] (hypertension model: 30 mg/kg twice daily orally for 14 days) is given as “significantly increased”. In addition, in data set [3], the P-R interval entry is listed as “shortening”, the R-R interval result is “shortening” and the p wave duration result is recorded as “shortening”. Moreover, in data set [3] (compared to control, p<0.05), the “QRS interval (QRS complex duration)” value is given as “prolongation”, the QT interval result is “prolongation” and the ST segment amplitude entry is listed as “elevation”. In data set [4] (setting [5]), the “serum cardiac troponin I (cTnI)” value is reported as “augmented”, the “serum cardiac troponin T (cTnT)” value is on record as “augmented”, the “serum creatine kinase-myocardial bound (CK-MB)” value was “augmented” and the “serum creatine phosphokinase (CPK)” value is given as “augmented”. Moreover, in data set [4] (setting [5]), the “serum lactate dehydrogenase (LDH)” value is “augmented”. For the same compound, in data set [4] (setting [6]), the “serum cardiac troponin I (cTnI)” value was “augmented”, the “serum cardiac troponin T (cTnT)” value is on record as “augmented”, the “serum creatine kinase-myocardial bound (CK-MB)” value is reported as “augmented” and the “serum creatine phosphokinase (CPK)” value is “augmented”. Moreover, the “serum lactate dehydrogenase (LDH)” value in data set [4] (setting [6]) is listed as “augmented”.
